“And” between values parts separate entries of the source, which are not always exact repeats. Equal entries are not always repeated.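 Step 1: Grow cells in 96-well plates. Step 2: Expose to compound for 48 hours at 5 concentrations. Step 3: Interpolate endpoints linearly; if unreached, use highest concentration. GI50 marks 50% less growth. TGI denotes the concentration required for complete inhibition of growth.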

Common to all, as to experiment: growth of human tumour cells (NCI), 48 h
The test system of assay [1] is SR leukemia.
Assay [2] has as its system SF-539 CNS.
Assay [3] has as its system COLO 205 colon.
Assay [4] relates to LOX IMVI melanoma.
The test system of assay [5] is MCF7 breast.
The test system of assay [6] is MDA-MB-231 breast.
Assay [7] concerns EKVX NSCLC.
The subject of assay [8] is NCI-H23 lung.
Assay [9] relates to K-562 leukemia.
For assay [10], the system named is SNB-19 CNS.

`CC(=O)c1ccc2c(c1)oc(=O)n2CCN(C)C`: the TGI in [1], in [2], in [3], in assay [4], in [5] and in assay [6] was over 100 µM each time. Further, the TGI in assay [7] and in assay [8] was over 100 µM in each case.

On to `O=C1CCC2=C(CCC2)N1CCc1ccc2c(c1)OCO2`, for which the TGI in assay [1], in assay [2], in assay [9], in [3], in assay [4] and in [5] was over 100 µM throughout. For the same compound, the TGI in assay [10], in assay [6], in assay [7] and in assay [8] was over 100 µM each time.

Consider `O=c1c2cc(-c3ccccc3)cnc2sn1-c1ccc([N+](=O)[O-])cc1`, for which the TGI in assay [1], in [2], in [9], in assay [3], in assay [5] and in [10] was over 100 µM in each case. In addition, the TGI in assay [6], in assay [7] and in [8] was over 100 µM each time.

On to `CCCCCC(/C=C/[C@@H]1CC(=O)C[C@H]1O[Si](C)(C)C(C)(C)C)OCOCCOC` (stereo partly specified), for which the TGI was 6.37 µM in [1]; 5.98 µM in assay [2]; 6.43 µM in assay [9]; 17.8 µM in assay [3]; 7 µM in assay [4]; over 43.5 µM in assay [5]. Besides, the TGI stood at 12.9 µM in assay [10], 14.7 µM in assay [6], 23.7 µM in assay [7] and 12.9 µM in assay [8].

Take `CN(N)C(=O)NCCCl`: the TGI in assay [1], in assay [2], in assay [9], in [3], in assay [4] and in assay [5] was over 100 µM each time. The TGI in [10], in [6], in assay [7] and in assay [8] was over 100 µM each time.

`N=C1N=C(N)c2cc3c(cc21)SCCSCCCSCCS3`: the TGI in assay [1] was 37.6 µM; in assay [2], over 54.6 µM; in [9], 31.8 µM; in assay [3], 16.9 µM; in assay [4] it was 17.6 µM; in [5], over 55.7 µM. Further, the TGI in [10] is 32.3 µM; in assay [6], 39.6 µM; in [7], over 58.5 µM; in [8], 16.2 µM.

As for `Oc1[nH]c2ccccc2c1N=NC(=S)N1CCCCCC1`, the TGI in assay [1] worked out at 3.44 µM; in assay [2] it was 1.59 µM; in assay [3] it was 6.2 µM; in [4], 2.41 µM; in assay [5], 10.9 µM; in [10], 15.4 µM. Further, the TGI in assay [6] came out at 3.35 µM; in assay [7], 6.8 µM; in [8] it was 8.51 µM.

Turning to `CC(=O)NC1C(OCc2ccccc2)OC(CO)C(O)C1OCC(=O)NC(C)C(=O)NC(CCC(=O)NCCCCCC(=O)Nc1ccc2c(c1)CN1C(=O)c3ccccc3C1=N2)C(N)=O` (stereo unspecified), the TGI in assay [1] is 42.5 µM; in assay [2], over 100 µM; in assay [9] it was over 100 µM; in [3] it was over 100 µM; in [4], over 100 µM; in assay [5], over 100 µM. Also, the TGI in assay [10], in assay [6], in assay [7] and in [8] was over 100 µM each time.

Consider `Cc1ccc(S(=O)(=O)n2cc(-c3cnc(N)c(Br)n3)c3ccccc32)cc1`, for which the TGI was 10.2 µM in assay [1]; over 23.3 µM in assay [2]; over 100 µM in assay [9]; 10 µM in [3]; over 100 µM in [4]; over 45.7 µM in assay [5]. The TGI in [10] is over 46.1 µM; in assay [6] it was over 24 µM; in assay [7], over 100 µM; in assay [8] it was 5.94 µM.

`Cc1ccnc(NC(=S)Nc2ccccc2Cl)c1`: the TGI in [1], in [2], in assay [9], in assay [3], in [4] and in assay [5] was over 100 µM each time. Besides, the results for the TGI in assay [10], in assay [6] and in [7] were over 100 µM, 45.7 µM and over 100 µM, respectively.

As to `Cc1nnc(N)nc1/C=C\c1cccs1`, the TGI in [1] was over 100 µM; in [9] it was 59.7 µM; in [3], over 100 µM; in assay [4] it was over 100 µM; in assay [5], over 100 µM; in assay [10], over 100 µM. Besides, the TGI in [6] was over 100 µM; in assay [7] it was 55.6 µM; in assay [8] it was 55.1 µM.

Regarding `O=C(/C=C/c1cccs1)c1ccsc1`, the TGI in [1] is 38.5 µM; in assay [9], 89.8 µM; in assay [3] it was 38 µM; in assay [4] it was 35.1 µM; in assay [5] it was over 100 µM; in assay [10] it was 50.8 µM. Besides, the results for the TGI in assay [6], in assay [7] and in [8] were over 10 µM, over 100 µM and 57.6 µM, respectively.

In the case of `NCCCCNCCCN`, the TGI in assay [1], in assay [2], in [9], in assay [3], in assay [4] and in assay [5] was over 100 µM in each case. Further, the TGI in assay [10], in [6], in [7] and in assay [8] was over 100 µM throughout.

`N#CC1N(C(=O)c2ccc(F)cc2)c2ccccc2N1C(=O)c1ccc(F)cc1`: the TGI in assay [1] was over 100 µM; in [2], over 100 µM; in [9], over 100 µM; in assay [3], 45.6 µM; in [4], over 100 µM; in assay [5], over 100 µM. In addition, the TGI in assay [10], in assay [6], in [7] and in assay [8] was over 100 µM each time.

As to `O=c1[nH]c(=O)n(C2CC(O)C(CO)O2)cc1NN=NCc1ccccc1` (stereo unspecified), the TGI in assay [1], in assay [9], in assay [4], in assay [5], in assay [10] and in assay [6] was over 100 µM each time. Moreover, the TGI in [7] and in assay [8] was over 100 µM in each case.

Regarding `O=C1Nc2ccccc2NC1C1OC(c2ccccc2)=CC1=O` (stereo unspecified), the TGI in [1], in [2], in assay [9], in assay [3], in assay [4] and in assay [5] was over 100 µM throughout. Also, the TGI in assay [10], in assay [6], in assay [7] and in [8] was over 100 µM throughout.

Take `Cc1cc(=O)c2c(O)c3c(O)cc(O)c4c5c(O)cc(O)c6c(O)c7c(=O)cc(C)c8c1c2c(c34)c(c65)c78`: the TGI in [1] is over 100 µM; in [2] it was over 100 µM; in [9] it was over 100 µM; in [3] it was over 100 µM; in [4], over 100 µM; in assay [5], > 100 µM and 36.3 µM. Moreover, the TGI in assay [10] was over 100 µM; in assay [6] it was over 100 µM; in assay [7], over 100 µM; in assay [8], > 100 µM and 60.2 µM. Besides, the GI50 was over 100 µM in assay [2]; over 100 µM in assay [3]; > 100 µM and 35.4 µM in assay [4]; > 100 µM and 16.6 µM in assay [5]; > 100 µM and 23 µM in [8].

With `Sc1nnc(-c2ccccc2Nc2ccccc2-c2nnc(S)n2-c2ccccc2)n1-c1ccccc1`, the TGI in [1], in assay [2], in assay [9], in assay [3], in [4] and in assay [5] was over 100 µM throughout. Moreover, the TGI in assay [10] was over 100 µM; in [6], 89.6 µM; in assay [7], 97.9 µM; in assay [8] it was over 100 µM.

For `Cc1nc2ccccc2c(=O)n1NC(=O)Cc1ccccc1`, the TGI in assay [1], in assay [2], in [9], in [3], in [4] and in assay [5] was over 100 µM in each case. In addition, the TGI in [10], in assay [6], in [7] and in assay [8] was over 100 µM each time.

Regarding `COc1cc2c3c(cc(Cl)nc3c1OC)C(O)(CC(C)=O)C(=O)N2` (stereo unspecified), the TGI in [1] is over 66.9 µM; in assay [2], over 100 µM; in assay [9], over 95 µM; in assay [3] it was over 100 µM; in assay [4] it was 34.8 µM; in [5], 35.9 µM. For the same compound, the TGI in assay [10] is over 54.7 µM; in assay [6], 33 µM; in assay [7], 30.9 µM; in assay [8], over 60.8 µM.

As for `Cc1cc(NC2=NCCO2)c2c(c1C)CCCC2`, the TGI came out at 75.9 µM in assay [1]; 22.6 µM in assay [2]; 46.6 µM in assay [3]; 31 µM in assay [5]; 38.8 µM in [10]; 77.9 µM in assay [6]. For the same compound, the TGI in assay [7] and in assay [8] was over 100 µM throughout.

As for `COc1ccc(N2C(=O)C3c4[nH]c5ccccc5c4C4CCC(C(C)C)CC4C3C2=O)cc1` (stereo unspecified), the TGI in [1], in [9], in assay [3], in assay [4], in assay [5] and in assay [10] was over 100 µM throughout. Also, the TGI in [6], in assay [7] and in [8] was over 100 µM in each case.

Take `COC(=O)c1ccc(C)cc1C1CN=NC12Cc1cc(C)c(C)cc1C2=O` (stereo unspecified): the TGI in assay [1], in assay [2], in [9], in assay [4], in assay [5] and in assay [10] was over 100 µM throughout. Moreover, the values for the TGI in assay [6], in [7] and in [8] were 81.4 µM, 99.7 µM and over 100 µM, respectively.

As for `C1OCN2c3nonc3N3COCN4c5nonc5N1C2C43` (stereo unspecified), the TGI in assay [1], in assay [2], in assay [9], in [3], in assay [5] and in assay [10] was over 100 µM in each case. Also, the TGI in [6], in assay [7] and in assay [8] was over 100 µM in each case.

With `CC1NOC(NS(=O)(=O)c2ccc(N=Nc3c(O)c(C(=O)O)cc4ccccc34)cc2)C1C` (stereo unspecified), the TGI in assay [1], in [2], in assay [9], in assay [3], in [5] and in [10] was over 100 µM throughout. Besides, the TGI in assay [6] and in assay [7] was over 100 µM throughout.

In the case of `O=C(CCc1cc(O)cc(O)c1)NCCc1ccc(O)c(O)c1`, the TGI in assay [1], in assay [2], in [3], in [4], in assay [5] and in [10] was over 100 µM throughout. Further, the TGI in assay [6], in assay [7] and in assay [8] was over 100 µM each time.

On to `CC(NC(=O)C(C)C(=O)NCc1ccc(C(F)(F)F)cc1)C(N)=O` (stereo unspecified), for which the TGI in assay [1], in assay [2], in assay [9], in assay [3], in assay [5] and in assay [10] was over 100 µM throughout. Further, the TGI in assay [6], in assay [7] and in assay [8] was over 100 µM in each case.

With `c1ccc(C(CCN2CCCC2)c2ccccn2)cc1` (stereo unspecified), the TGI in [1], in assay [9], in assay [3], in assay [4], in assay [5] and in assay [10] was over 100 µM each time. Besides, the TGI in [6], in assay [7] and in [8] was over 100 µM throughout.

For the origin of these results see PubChem BioAssay (NCI).
